This is an account of results in patent publication US7265107B2, “Rifamycin C-11 oxime cyclo derivatives effective against drug-resistant microbes” (Cumbre Pharmaceuticals Inc., priority 2004, dated 2007).

Values after ≈ are worked out from the molar mass of the structure shown.

Holding throughout (type): cell-based
Assay [1] relates to Enterococcus faecalis ATCC29212. The conditions noted are these: rifS, BHI Broth, 37° C., read-out: Antimicrobial activity (MIC).
Assay [2] has as its system Staphylococcus aureus EN1252a gvrA^S84L grlA^S80F. In words: microbe, parasite or virus in culture. The conditions noted are these: cipR, Cation-Adjusted Mueller-Hinton Broth, 37° C., read-out: Antimicrobial activity (MIC). How it is done:
Representative compounds were assayed for antimicrobial activity as follows: Minimum Inhibitory Concentrations (“MICs”) were determined by the microbroth dilution method as per NCCLS guidelines (National Committee for Clinical Laboratory Standards. 2000. Methods for dilution antimicrobial susceptibility tests for bacteria that grow aerobically, 5th ed. M7-A5. National Committee for Clinical Laboratory Standards, Wayne, Pa.), except that all growth incubations were conducted at 37° C. Bacterial cultures were tested in the following bacteriological media: S. aureus, S. epidermidis, and E. coli in Cation-Adjusted Mueller-Hinton Broth, S. pneumoniae in THY Broth supplemented with 1 mg/mL catalase under 5% CO2 atmosphere, S. pyogenes in THY Broth, E. faecalis in BHI Broth, H. influenzae in BHI Broth supplemented with 0.75 μL of 1 mg/mL NAD and 150 μL of 1 mg/ml hematin per 5 mL, and M. smegmatis in Middlebrook Broth plus ADC Enrichment.
S. aureus EN1252a gyrA^S84L grlA^S80F is a quinolone-resistant strain due to double mutations to the genes confer DNA gyrase and topoisomerase IV.

Assay [3] concerns Streptococcus pneumoniae ATCC6303. The settings on record: rifS, THY Broth with 1 mg/mL catalase, 5% CO2, 37° C., read-out: Antimicrobial activity (MIC).
Assay [4] has as its system Haemophilus influenzae ATCC10211. The settings on record: rifS, BHI Broth with NAD and hematin, 37° C., read-out: Antimicrobial activity (MIC).

Consider `CO[C@H]1/C=C/O[C@@]2(C)Oc3c(C)c(O)c4c(=O)c(c5oc6cc(N7CCN(CCOCCO)CC7)cc(O)c6nc-5c4c3/C2=N/O)NC(=O)/C(C)=C\C=C\[C@H](C)[C@H](O)[C@@H](C)[C@@H](O)[C@@H](C)[C@H](OC(C)=O)[C@@H]1C` [Example 17, 11-Deoxy-11-hydroxyimino-1′,4-didehydro-1-deoxy-1,4-dihydro-3′-hydroxy-5′-{4-[2-(2-hydroxy-ethoxy)-ethyl]-piperazin-1-yl}-1-oxo-rifamycin VIII], for which the MIC lay within 500 to 31200 ng/mL (≈ 506 to 31600 nM) in assay [1], 0.5 to 125 ng/mL (≈ 0.506 to 127 nM) in assay [2], 0.06 to 31 ng/mL (≈ 0.0607 to 31.4 nM) in assay [3] and 125 to 8000 ng/mL (≈ 127 to 8100 nM) in assay [4].

`CO[C@H]1/C=C/O[C@@]2(C)Oc3c(C)c(O)c4c(=O)c(c5oc6cc(N7CCOCC7)cc(O)c6nc-5c4c3/C2=N/O)NC(=O)/C(C)=C\C=C\[C@H](C)[C@H](O)[C@@H](C)[C@@H](O)[C@@H](C)[C@H](OC(C)=O)[C@@H]1C` [Example 6, 11-Deoxy-11-hydroxyimino-1′,4-didehydro-1-deoxy-1,4-dihydro-3′-hydroxy-5′-(morpholin-4-yl)-1-oxo-rifamycin VIII]: the MIC in assay [1] is 500 to 31200 ng/mL (≈ 555 to 34700 nM); in assay [2], 0.5 to 125 ng/mL (≈ 0.555 to 139 nM); in assay [3], 0.06 to 31 ng/mL (≈ 0.0666 to 34.4 nM); in assay [4], 125 to 8000 ng/mL (≈ 139 to 8880 nM).

For `CO[C@H]1/C=C/O[C@@]2(C)Oc3c(C)c(O)c4c(=O)c(c5oc6cc(N7CCCC7)cc(O)c6nc-5c4c3/C2=N/O)NC(=O)/C(C)=C\C=C\[C@H](C)[C@H](O)[C@@H](C)[C@@H](O)[C@@H](C)[C@H](OC(C)=O)[C@@H]1C` [Example 16, 11-Deoxy-11-hydroxyimino-1′,4-didehydro-1-deoxy-1,4-dihydro-3′-hydroxy-5′-(pyrrolidin-1-yl)-1-oxo-rifamycin VIII], the MIC fell in the range of 500 to 31200 ng/mL (≈ 565 to 35300 nM) in assay [1], 0.5 to 125 ng/mL (≈ 0.565 to 141 nM) in assay [2], 0.06 to 31 ng/mL (≈ 0.0678 to 35 nM) in assay [3] and 125 to 8000 ng/mL (≈ 141 to 9040 nM) in assay [4].

Take `COc1c(N2CCN(C(=O)CO/N=C3/c4c5c(C)c(O)c6c4C4=NC7(CCN(CC(C)C)CC7)NC4=C(NC(=O)/C(C)=C\C=C\[C@H](C)[C@H](O)[C@@H](C)[C@@H](O)[C@@H](C)[C@H](OC(C)=O)[C@H](C)[C@@H](OC)/C=C/O[C@@]3(C)O5)C6=O)C(C)C2)c(F)cc2c(=O)c(C(=O)O)cn(C3CC3)c12` (some centres unmarked) [Example 22, 11-Deoxy-11-{2-oxo-2-[2-methyl4-(3-carboxy-1-cyclopropl-2-methoxy-6-fluoro-4-oxo-1,4-dihydroquinolin-7-yl)piperazin-1-yl]ethoxyimino}-1′,4-didehydro-1-deoxy-1,4-dihydro-5′-(2-methylpropyl)-1-oxo-rifamycin XIV]: the MIC lay within 500 to 31200 ng/mL (≈ 391 to 24500 nM) in assay [1], 0.5 to 125 ng/mL (≈ 0.391 to 97.9 nM) in assay [2], 0.06 to 31 ng/mL (≈ 0.047 to 24.3 nM) in assay [3] and 125 to 8000 ng/mL (≈ 97.9 to 6260 nM) in assay [4].

Regarding `CO[C@H]1/C=C/O[C@@]2(C)Oc3c(C)c(O)c4c(=O)c(c5oc6cc(N7CCN(C)CC7)cc(O)c6nc-5c4c3/C2=N/O)NC(=O)/C(C)=C\C=C\[C@H](C)[C@H](O)[C@@H](C)[C@@H](O)[C@@H](C)[C@H](OC(C)=O)[C@@H]1C` [Example 7, 11-Deoxy-11-hydroxyimino-1′,4-didehydro-1-deoxy-1,4-dihydro-3′-hydroxy-5′-(4-methyl-i-piperazinyl)-1-oxo-rifamycin VIII], the MIC fell in the range of 500 to 31200 ng/mL (≈ 547 to 34200 nM) in assay [1], 0.5 to 125 ng/mL (≈ 0.547 to 137 nM) in assay [2], 0.06 to 31 ng/mL (≈ 0.0656 to 33.9 nM) in assay [3] and 125 to 8000 ng/mL (≈ 137 to 8750 nM) in assay [4].

For `CO[C@H]1/C=C/O[C@@]2(C)Oc3c(C)c(O)c4c(=O)c(c5oc6cc(N7CC[C@@H](N)C7)cc(O)c6nc-5c4c3/C2=N/O)NC(=O)/C(C)=C\C=C\[C@H](C)[C@H](O)[C@@H](C)[C@@H](O)[C@@H](C)[C@H](OC(C)=O)[C@@H]1C` [Example 15, 11-Deoxy-11-hydroxyimino-1′,4-didehydro-1-deoxy-1,4-dihydro-3′-hydroxy-5′-(3-amino-pyrrolidin-1-yl)-1-oxo-rifamycin VIII], the MIC was 500 to 31200 ng/mL (≈ 556 to 34700 nM) in assay [1], 0.5 to 125 ng/mL (≈ 0.556 to 139 nM) in assay [2], 0.06 to 31 ng/mL (≈ 0.0667 to 34.4 nM) in assay [3] and 125 to 8000 ng/mL (≈ 139 to 8890 nM) in assay [4].

For the molecule `CO[C@H]1/C=C/O[C@@]2(C)Oc3c(C)c(O)c4c(=O)c(c5oc6cc(N7CCN(CC8CCN(C)CC8)CC7)cc(O)c6nc-5c4c3/C2=N/O)NC(=O)/C(C)=C\C=C\[C@H](C)[C@H](O)[C@@H](C)[C@@H](O)[C@@H](C)[C@H](OC(C)=O)[C@@H]1C` [Example 12, 11-Deoxy-11-hydroxyimino-1′,4-didehydro-1-deoxy-1,4-dihydro-3′-hydroxy-5 V-[4-(1-Methyl-piperidin-4-ylmethyl)-1-piperazinyl]-1-oxo-rifamycin VII], the MIC in assay [1] fell in the range of 500 to 31200 ng/mL (≈ 494 to 30900 nM); in assay [2], 0.5 to 125 ng/mL (≈ 0.494 to 124 nM); in assay [3] it was 0.06 to 31 ng/mL (≈ 0.0593 to 30.7 nM); in assay [4] it was 125 to 8000 ng/mL (≈ 124 to 7910 nM).

Regarding `CO[C@H]1/C=C/O[C@@]2(C)Oc3c(C)c(O)c4c(=O)c(c5oc6cc(N7CCN(CC(C)C)CC7)cc(O)c6nc-5c4c3/C2=N/O)NC(=O)/C(C)=C\C=C\[C@H](C)[C@H](O)[C@@H](C)[C@@H](O)[C@@H](C)[C@H](OC(C)=O)[C@@H]1C` [Example 5, 11-Deoxy-11-hydroxyimino-1′,4-didehydro-1-deoxy-1,4-dihydro-3′-hydroxy-5′-[4-(2-methylpropyl)-1-piperazinyl]-1-oxo-rifamycin VIII], the MIC in assay [1] lay within 500 to 31200 ng/mL (≈ 523 to 32700 nM); in assay [2], 0.5 to 125 ng/mL (≈ 0.523 to 131 nM); in assay [3] it was 0.06 to 31 ng/mL (≈ 0.0628 to 32.4 nM); in assay [4], 125 to 8000 ng/mL (≈ 131 to 8370 nM).

In the case of `CO[C@H]1/C=C/O[C@@]2(C)Oc3c(C)c(O)c4c(c3/C2=N/OCC(=O)O)C2=NC3(CCN(CC(C)C)CC3)NC2=C(NC(=O)/C(C)=C\C=C\[C@H](C)[C@H](O)[C@@H](C)[C@@H](O)[C@@H](C)[C@H](OC(C)=O)[C@@H]1C)C4=O` [Example 21, 11-Deoxy-11-(4-carboxymethoxyimino)-1′,4-didehydro-1-deoxy-1,4-dihydro-5′-(2-methylpropyl)-1-oxo-rifamycin XIV], the MIC in assay [1] was 500 to 31200 ng/mL (≈ 543 to 34000 nM); in assay [2] it was 0.5 to 125 ng/mL (≈ 0.543 to 136 nM); in assay [3] it was 0.06 to 31 ng/mL (≈ 0.0652 to 33.7 nM); in assay [4], 125 to 8000 ng/mL (≈ 136 to 8690 nM).

As to `CO[C@H]1/C=C/O[C@@]2(C)Oc3c(C)c(O)c4c(=O)c(c5oc6cc(N7CCN(C)CC7)cc(C)c6nc-5c4c3/C2=N/O)NC(=O)/C(C)=C\C=C\[C@H](C)[C@H](O)[C@@H](C)[C@@H](O)[C@@H](C)[C@H](OC(C)=O)[C@@H]1C` [Example 19, 11-Deoxy-11-hydroxyimino-1′,4-didehydro-1-deoxy-1,4-dihydro-3′-methyl-5′-(4-methyl-1-piperazinyl)-1-oxo-rifamycin VIII], the MIC fell in the range of 500 to 31200 ng/mL (≈ 548 to 34300 nM) in assay [1], 0.5 to 125 ng/mL (≈ 0.548 to 137 nM) in assay [2], 0.06 to 31 ng/mL (≈ 0.0658 to 34 nM) in assay [3] and 125 to 8000 ng/mL (≈ 137 to 8770 nM) in assay [4].

Take `CCN1CCN(c2cc(O)c3nc4c5c6c7c(C)c(O)c5c(=O)c(c-4oc3c2)NC(=O)/C(C)=C\C=C\[C@H](C)[C@H](O)[C@@H](C)[C@@H](O)[C@@H](C)[C@H](OC(C)=O)[C@H](C)[C@@H](OC)/C=C/O[C@@](C)(O7)/C6=N\O)CC1` [Example 8, 11-Deoxy-11-hydroxyimino-1′,4-didehydro-1-deoxy-1,4-dihydro-3′-hydroxy-5′-(4-ethyl-1-piperazinyl)-1-oxo-rifamycin VIII]: the MIC in assay [1] fell in the range of 500 to 31200 ng/mL (≈ 539 to 33700 nM); in assay [2], 0.5 to 125 ng/mL (≈ 0.539 to 135 nM); in assay [3] it was 0.06 to 31 ng/mL (≈ 0.0647 to 33.4 nM); in assay [4], 125 to 8000 ng/mL (≈ 135 to 8620 nM).

On to `CO[C@H]1/C=C/O[C@@]2(C)Oc3c(C)c(O)c4c(=O)c(c5oc6cc(N7CC(C)NC(C)C7)cc(O)c6nc-5c4c3/C2=N/O)NC(=O)/C(C)=C\C=C\[C@H](C)[C@H](O)[C@@H](C)[C@@H](O)[C@@H](C)[C@H](OC(C)=O)[C@@H]1C` (some centres unmarked) [Example 14, 11-Deoxy-11-hydroxyimino-1′,4-didehydro-1-deoxy-1,4-dihydro-3′-hydroxy-5′-(3,5-dimethyl-1-piperazinyl)-1-oxo-rifamycin VIII], for which the MIC in assay [1] fell in the range of 500 to 31200 ng/mL (≈ 539 to 33700 nM); in assay [2] it was 0.5 to 125 ng/mL (≈ 0.539 to 135 nM); in assay [3], 0.06 to 31 ng/mL (≈ 0.0647 to 33.4 nM); in assay [4] it was 125 to 8000 ng/mL (≈ 135 to 8620 nM).

In the case of `CCCCN1CCN(c2cc(O)c3nc4c5c6c7c(C)c(O)c5c(=O)c(c-4oc3c2)NC(=O)/C(C)=C\C=C\[C@H](C)[C@H](O)[C@@H](C)[C@@H](O)[C@@H](C)[C@H](OC(C)=O)[C@H](C)[C@@H](OC)/C=C/O[C@@](C)(O7)/C6=N\O)CC1` [Example 10, 11-Deoxy-11-hydroxyimino-1′,4-didehydro-1-deoxy-1,4-dihydro-3′-hydroxy-5′-(4-butyl-1-piperazinyl)-1-oxo-rifamycin VIII], the MIC in assay [1] lay within 500 to 31200 ng/mL (≈ 523 to 32700 nM); in assay [2] it was 0.5 to 125 ng/mL (≈ 0.523 to 131 nM); in assay [3], 0.06 to 31 ng/mL (≈ 0.0628 to 32.4 nM); in assay [4], 125 to 8000 ng/mL (≈ 131 to 8370 nM).

For the molecule `CO[C@H]1/C=C/O[C@@]2(C)Oc3c(C)c(O)c4c(c3/C2=N/O)C2=NC3(CCN(CC(C)C)CC3)NC2=C(NC(=O)/C(C)=C\C=C\[C@H](C)[C@H](O)[C@@H](C)[C@@H](O)[C@@H](C)[C@H](OC(C)=O)[C@@H]1C)C4=O` [Example 4, 11-Deoxy-11-hydroxyimino-1′,4-didehydro-1-deoxy-1,4-dihydro-5′-(2-methylpropyl)-1-oxo-rifamycin XIV], the MIC in assay [1] was 500 to 31200 ng/mL (≈ 580 to 36300 nM); in assay [2], 0.5 to 125 ng/mL (≈ 0.58 to 145 nM); in assay [3], 0.06 to 31 ng/mL (≈ 0.0696 to 36 nM); in assay [4], 125 to 8000 ng/mL (≈ 145 to 9280 nM).
